This is an account of results in patent US10738056B2 (Aduro BioTech, Inc., priority 2017, dated 2020).

For assay [1], the target named is Human cGAS amino acids 155-522 (Homo sapiens (Human), UniProt Q8N884). Description: cGAS biochemical activity assay (ATP remaining, Kinase-Glo Max luminescence). The following applies: human cGAS 155-522, ATP remaining (Kinase-Glo Max); read-out: cGAS IC50.
Assay [2] deals with cGAS/STING pathway in THP1 cells. Description: THP1 cell-based cGAS/STING pathway activity assay (IRF-3-linked luciferase reporter). In a few lines: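 THP1 cells carrying an IRF-3-driven luciferase reporter were read across a range of compound concentrations, and IC50 values were derived from these concentration responses; the assay upper limit was 100 μM.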

pIC50: −log10 of the molar value. Like-named read-outs stand apart in the source and are kept apart here. Some results are limits rather than exact numbers.

Sequence of Human cGAS amino acids 155-522 (Q8N884 157-522): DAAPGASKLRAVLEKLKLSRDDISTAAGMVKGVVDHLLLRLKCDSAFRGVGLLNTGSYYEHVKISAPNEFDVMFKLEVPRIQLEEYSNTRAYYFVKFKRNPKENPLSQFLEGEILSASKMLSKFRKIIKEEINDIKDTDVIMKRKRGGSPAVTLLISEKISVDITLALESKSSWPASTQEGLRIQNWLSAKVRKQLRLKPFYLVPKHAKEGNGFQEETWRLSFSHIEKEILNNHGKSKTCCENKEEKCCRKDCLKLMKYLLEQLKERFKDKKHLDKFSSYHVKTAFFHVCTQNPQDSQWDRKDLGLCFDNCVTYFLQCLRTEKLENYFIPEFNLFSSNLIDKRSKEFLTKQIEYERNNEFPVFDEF

Take `Cc1[nH]c2c(-c3ccccc3)c(C(F)(F)F)nn2c(=O)c1C(=O)Nc1nccs1` [Compound A1028, 5-methyl-7-oxo-3-phenyl-N-(thiazol-2-yl)-2-(trifluoromethyl)-4,7-dihydropyrazolo[1,5-a]pyrimidine-6-carboxamide]: the negative logarithm of the IC50 (pIC50) is greater than 4.70 in assay [1] and 4.00 to 4.70 in assay [2] (Homo sapiens, THP-1).
For `Cc1[nH]c2c(-c3ccccc3)c(C(F)(F)F)nn2c(=O)c1C(=O)NS(C)(=O)=O` [Compound A1117, 5-methyl-N-(methylsulfonyl)-7-oxo-3-phenyl-2-(trifluoromethyl)-4,7-dihydropyrazolo[1,5-a]pyrimidine-6-carboxamide] the same measures were 3.60 to 4.70 and less than 4.00.
Regarding `COc1cccc2[nH]c(-c3c(C)[nH]c4c(-c5ccccc5)c(C(F)(F)F)nn4c3=O)nc12` [Compound C1018, 6-(4-methoxy-1H-benzo[d]imidazol-2-yl)-5-methyl-3-phenyl-2-(trifluoromethyl)pyrazolo[1,5-a]pyrimidin-7(4H)-one], the pIC50 is greater than 4.70 in assay [1] and less than 4.00 in assay [2] (Homo sapiens, THP-1).
With `CO[C@@H]1CCCC(c2nnc(-c3c(C)[nH]c4c(-c5ccccc5)c(C(F)(F)F)nn4c3=O)o2)C1` (stereo partly drawn) [D1021 Iso-2], the pIC50 in assay [1] was greater than 4.70; in assay [2] (read-out: THP-1 IC50) it was less than 4.00.
For the compound `Cc1[nH]c2c(-c3ccccc3)c(C(F)(F)F)nn2c(=O)c1-c1nc2c([nH]1)CCCC2` [Compound C1017, 5-methyl-3-phenyl-6-(4,5,6,7-tetrahydro-1H-benzo[d]imidazol-2-yl)-2-(trifluoromethyl)pyrazolo[1,5-a]pyrimidin-7(4H)-one], the pIC50 in assay [1] was greater than 4.70; in assay [2] (Homo sapiens, THP-1), 4.00 to 4.70.
For `Cc1[nH]c2c(-c3ccccc3)c(C(F)(F)F)nn2c(=O)c1-c1nc2c(N(C)C)cccc2o1` [Compound C1078, 6-(4-(dimethylamino)benzo[d]oxazol-2-yl)-5-methyl-3-phenyl-2-(trifluoromethyl)pyrazolo[1,5-a]pyrimidin-7(4H)-one] the same measures were greater than 4.70 and greater than 4.70.
For `COC(=O)[C@@H]1COC(c2c(C)[nH]c3c(-c4ccccc4)c(C(F)(F)F)nn3c2=O)=N1` [Compound C1187, methyl (S)-2-(5-methyl-7-oxo-3-phenyl-2-(trifluoromethyl)-4,7-dihydropyrazolo[1,5-a]pyrimidin-6-yl)-4,5-dihydrooxazole-4-carboxylate] the same measures were greater than 4.70 and less than 4.00.
For `Cc1[nH]c2c(-c3ccccc3)c(C(F)(F)F)nn2c(=O)c1-c1nnc(C2(C)CCCOC2)o1` (stereo not drawn) [Compound D1051, 5-methyl-6-(5-(3-methyltetrahydro-2H-pyran-3-yl)-1,3,4-oxadiazol-2-yl)-3-phenyl-2-(trifluoromethyl)pyrazolo[1,5-a]pyrimidin-7(4H)-one] the same measures were 3.60 to 4.70 and less than 4.00.
As for `Cc1[nH]c2c(-c3ccccc3)c(C(F)(F)F)nn2c(=O)c1-c1nn(C(C)C)c(=O)o1` [Compound C1023, 3-isopropyl-5-(5-methyl-7-oxo-3-phenyl-2-(trifluoromethyl)-4,7-dihydropyrazolo[1,5-a]pyrimidin-6-yl)-1,3,4-oxadiazol-2(3H)-one], the negative-log IC50 (pIC50) in assay [1] is greater than 4.70; in assay [2] (Homo sapiens, THP-1), less than 4.00.
For `Cc1[nH]c2c(-c3ccccc3)c(C(F)(F)F)nn2c(=O)c1-c1nnc(C2(C(F)(F)F)CC2)o1` [Compound D1038, 5-methyl-3-phenyl-2-(trifluoromethyl)-6-(5-(1-(trifluoromethyl)cyclopropyl)-1,3,4-oxadiazol-2-yl)pyrazolo[1,5-a]pyrimidin-7(4H)-one] the same measures were greater than 4.70 and greater than 4.70.
For `COCc1nc(-c2c(C)[nH]c3c(-c4ccccc4)c(C(F)(F)F)nn3c2=O)oc1C(C)C` [Compound C1153, 6-(5-isopropyl-4-(methoxymethyl)oxazol-2-yl)-5-methyl-3-phenyl-2-(trifluoromethyl)pyrazolo[1,5-a]pyrimidin-7(4H)-one] the same measures were greater than 4.70 and 4.00 to 4.70.
On to `Cc1[nH]c2c(-c3ccccc3)c(C(F)(F)F)nn2c(=O)c1-c1nnc([C@@H]2CCCOC2)o1` [Compound D1026, (R)-5-methyl-3-phenyl-6-(5-(tetrahydro-2H-pyran-3-yl)-1,3,4-oxadiazol-2-yl)-2-(trifluoromethyl)pyrazolo[1,5-a]pyrimidin-7(4H)-one], for which the pIC50 in assay [1] is greater than 4.70; in assay [2] (Homo sapiens, THP-1), less than 4.00.
Regarding `CO[C@@H]1CCCC[C@H]1c1nnc(-c2c(C)[nH]c3c(-c4ccccc4)c(C(F)(F)F)nn3c2=O)o1` [D1046 Iso-3], the results for the pIC50 in assay [1] and in assay [2] (read-out: THP-1 IC50) were greater than 4.70 and less than 4.00, respectively.
In the case of `Cc1[nH]c2c(C(C)C)c(C(F)(F)F)nn2c(=O)c1-c1ccccc1` [Compound C1269, 3-isopropyl-5-methyl-6-phenyl-2-(trifluoromethyl)pyrazolo[1,5-a]pyrimidin-7(4H)-one], the pIC50 in assay [1] is less than 3.60; in assay [2] (Homo sapiens, THP-1) it was 4.00 to 4.70.
Take `COc1ccc(C(=O)O)c2oc(-c3c(C)[nH]c4c(-c5ccccc5)c(C(F)(F)F)nn4c3=O)nc12` [Compound C1130]: the pIC50 in assay [1] was greater than 4.70; in assay [2] (Homo sapiens, THP-1), 4.00 to 4.70.
For `COc1cccc2oc(-c3c(C4CC(C(=O)O)C4)[nH]c4c(-c5ccccc5)c(C(F)(F)F)nn4c3=O)nc12` (stereo not drawn) [Compound C1252, 3-(6-(4-methoxybenzo[d]oxazol-2-yl)-7-oxo-3-phenyl-2-(trifluoromethyl)-4,7-dihydropyrazolo[1,5-a]pyrimidin-5-yl)cyclobutane-1-carboxylic acid] the same measures were greater than 4.70 and less than 4.00.
In the case of `Cc1[nH]c2c(-c3ccccc3)c(C(F)(F)F)nn2c(=O)c1C1=N[C@@H](C(=O)O)[C@H](C)O1` [Compound C1213, (4R,5S)-5-methyl-2-(5-methyl-7-oxo-3-phenyl-2-(trifluoromethyl)-4,7-dihydropyrazolo[1,5-a]pyrimidin-6-yl)-4,5-dihydrooxazole-4-carboxylic acid], the pIC50 in assay [1] is greater than 4.70; in assay [2] (Homo sapiens, THP-1) it was 4.00 to 4.70.
For `Cc1[nH]c2c(-c3ccccc3)c(C(F)(F)F)nn2c(=O)c1-c1nc2ccccc2c(=O)[nH]1` [Compound C1019, 2-(5-methyl-7-oxo-3-phenyl-2-(trifluoromethyl)-4,7-dihydropyrazolo[1,5-a]pyrimidin-6-yl)quinazolin-4(3H)-one] the same measures were greater than 4.70 and 4.00 to 4.70.
For `COc1cccc2oc(-c3c(C)[nH]c4c(-c5ccc(F)cc5)c(C(F)(F)F)nn4c3=O)nc12` [Compound C1107, 3-(4-fluorophenyl)-6-(4-methoxybenzo[d]oxazol-2-yl)-5-methyl-2-(trifluoromethyl)pyrazolo[1,5-a]pyrimidin-7(4H)-one] the same measures were less than 3.60 and greater than 4.70.
For `COCc1coc(-c2c(C)[nH]c3c(-c4ccccc4)c(C(F)(F)F)nn3c2=O)n1` [Compound C1108, 6-(4-(methoxymethyl)oxazol-2-yl)-5-methyl-3-phenyl-2-(trifluoromethyl)pyrazolo[1,5-a]pyrimidin-7(4H)-one] the same measures were greater than 4.70 and less than 4.00.
Take `Cc1[nH]c2c(-c3ccccc3)c(C(F)(F)F)nn2c(=O)c1-c1nnc(C2CCOCC2)o1` [Compound D1016, 5-methyl-3-phenyl-6-(5-(tetrahydro-2H-pyran-4-yl)-1,3,4-oxadiazol-2-yl)-2-(trifluoromethyl)pyrazolo[1,5-a]pyrimidin-7(4H)-one]: the pIC50 in assay [1] was greater than 4.70; in assay [2] (Homo sapiens, THP-1) it was less than 4.00.
For `Cc1[nH]c2c(-c3ccccc3)c(C(F)(F)F)nn2c(=O)c1C(=O)NS(=O)(=O)c1ccccc1Cl` [Compound A1127, N-((2-chlorophenyl)sulfonyl)-5-methyl-7-oxo-3-phenyl-2-(trifluoromethyl)-4,7-dihydropyrazolo[1,5-a]pyrimidine-6-carboxamide] the same measures were greater than 4.70 and 4.00 to 4.70.
For `COc1cccc2nc(-c3c(C)[nH]c4c(-c5ccccc5)c(C(F)(F)F)nn4c3=O)[nH]c(=O)c12` [Compound C1024, 5-methoxy-2-(5-methyl-7-oxo-3-phenyl-2-(trifluoromethyl)-4,7-dihydropyrazolo[1,5-a]pyrimidin-6-yl)quinazolin-4(3H)-one] the same measures were greater than 4.70 and 4.00 to 4.70.
With `Cc1[nH]c2c(-c3ccccc3)c(C(F)(F)F)nn2c(=O)c1-c1nc2c(o1)CCCNC2=O` [Compound C1059, 2-(5-methyl-7-oxo-3-phenyl-2-(trifluoromethyl)-4,7-dihydropyrazolo[1,5-a]pyrimidin-6-yl)-5,6,7,8-tetrahydro-4H-oxazolo[4,5-c]azepin-4-one], the pIC50 is greater than 4.70 in assay [1] and less than 4.00 in assay [2] (Homo sapiens, THP-1).
For `Cc1[nH]c2c(-c3ccccc3)c(C(F)(F)F)nn2c(=O)c1C(=O)Nc1cc[nH]n1` [Compound A1076, 5-methyl-7-oxo-3-phenyl-N-(1H-pyrazol-3-yl)-2-(trifluoromethyl)-4,7-dihydropyrazolo[1,5-a]pyrimidine-6-carboxamide] the same measures were greater than 4.70 and 4.00 to 4.70.
In the case of `COCCn1ccc(NC(=O)c2c(C)[nH]c3c(-c4ccccc4)c(C(F)(F)F)nn3c2=O)n1` [Compound A1115, N-(1-(2-methoxyethyl)-1H-pyrazol-3-yl)-5-methyl-7-oxo-3-phenyl-2-(trifluoromethyl)-4,7-dihydropyrazolo[1,5-a]pyrimidine-6-carboxamide], the negative logarithm of the IC50 (pIC50) in assay [1] is 3.60 to 4.70; in assay [2] (Homo sapiens, THP-1), less than 4.00.
For the compound `Cc1[nH]c2c(-c3ccccc3)c(C(F)(F)F)nn2c(=O)c1-c1nnc(N2CCCC2C)o1` (stereo not drawn) [Compound D1022, 5-methyl-6-(5-(2-methylpyrrolidin-1-yl)-1,3,4-oxadiazol-2-yl)-3-phenyl-2-(trifluoromethyl)pyrazolo[1,5-a]pyrimidin-7(4H)-one], the pIC50 in assay [1] is greater than 4.70; in assay [2] (Homo sapiens, THP-1) it was less than 4.00.
